One compound from publication PMC5640644, “HDX reveals the conformational dynamics of DNA sequence specific VDR co-activator interactions” (Nature Communications, 2017) can be followed below.

For this assay, the target named is T1, RXRα (Homo sapiens, UniProt P19793).
T1 construct: Flag; made in house; host or cells: baculovirus system
T1 sequence (P19793 1-462): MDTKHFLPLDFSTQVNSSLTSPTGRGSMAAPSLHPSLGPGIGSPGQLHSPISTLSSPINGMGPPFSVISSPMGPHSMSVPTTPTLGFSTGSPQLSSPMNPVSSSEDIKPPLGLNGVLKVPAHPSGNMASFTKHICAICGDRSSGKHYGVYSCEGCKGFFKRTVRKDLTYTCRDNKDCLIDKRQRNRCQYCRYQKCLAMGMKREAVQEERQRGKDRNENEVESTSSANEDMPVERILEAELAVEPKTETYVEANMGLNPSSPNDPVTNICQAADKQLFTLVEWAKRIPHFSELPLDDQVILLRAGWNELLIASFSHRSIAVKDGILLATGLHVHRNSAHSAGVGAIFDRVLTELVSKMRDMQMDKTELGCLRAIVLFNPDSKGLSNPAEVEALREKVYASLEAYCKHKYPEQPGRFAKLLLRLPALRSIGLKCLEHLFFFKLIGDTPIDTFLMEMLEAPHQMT
As to the kind of experiment: Differential HDX-MS of RXRα alone with and without ligand. Conditions: without VDR. The format is binding. Here is the method:
Full-length WT His-hVDR (Δ (151–190)) and WT Flag-h RXRα were expressed in a baculovirus system and purified by Ni-NTASEC or Flag-SEC, respectively. His-hSRC1 RID (627–786) variant 1 (NM_003743) was expressed in Escherichia coli (BL21 DE3) and purified using His-Trap (GE Healthcare). The final protein buffer was 50 mM Tris (pH 8.0), 150 mM NaCl, 10% glycerol and 2 mM DTT. The purity of each protein was > 95% and was verified using SDS-PAGE, western blot and MALDI MS.
HDX-MS analysis: 10 μM of the apo protein was mixed with 1:10 molar excess of ligand and incubated for 2 h at 4 °C for complex formation before subjecting them to HDX analysis. […] The intensity weighted mean m/z centroid value of each peptide envelope was calculated and subsequently converted into a percentage of deuterium incorporation. […] In the absence of a fully deuterated control, 100% deuterium incorporation was calculated theoretically, and corrections for back-exchange were made on the basis of an estimated 70% deuterium recovery and accounting for 79.9% final deuterium concentration in the sample (1:5 dilution in D2O HDX buffer). Statistical significance for the differential HDX data is determined by an unpaired t-test for each time point, a procedure that is integrated into the HDX Workbench software. […]

Consider `CCC(CC)(c1ccc(OCC(O)C(C)(C)C)c(C)c1)c1ccc(C(=O)N(C)CC(=O)O)c(C)c1` (stereo not shown) [Cmpd1, [(4-{1-ethyl-1-[4-(2-hydroxy-3,3-dimethyl-butoxy)-3-methyl-phenyl]-propyl}-2-methyl-benzoyl)-methyl-amino]-acetic acid], for which the “conformational changes of RXRα upon ligand binding (HDX)” value is recorded as “no detectable conformational changes”.
